In PubChem BioAssay AID252 (DTP/NCI, 2004):
“And” between values parts separate entries of the source, which are not always exact repeats. Equal values may be shown once. Inconclusive results and toxic doses are left out.

System: BDF1 mice, intracerebral L1210 leukemia, survival T/C
Test: NCI In Vivo Anticancer Drug Screen. Data for tumor model L1210 Leukemia (intracerebral) in B6D2F1 (BDF1) mice
Details: higher = longer survival
Procedure: The antitumor activity of compounds was measured in mice bearing transplantable tumors. Survival or tumor size were measured and the results are expressed as the measurement made in the treated group (T) divided by the measurement made in the vehicle treated control group (C). The tumor model used in this assay is L1210 Leukemia (intracerebral) in B6D2F1 (BDF1) mice

For `O=NN(CCF)C(=O)NC1CCC(NC(=O)N(CCF)N=O)CC1` (stereo not given), the T/C (endpoint: mean survival time, dose: 10.0 mg/kg/injection, schedule: Q01DX001 (ip), vehicle: other) was 110 % of control, the T/C (endpoint: mean survival time, dose: 25.0 mg/kg/injection, schedule: Q01DX001 (ip), vehicle: other) was 120 % of control and the T/C (endpoint: mean survival time, dose: 30.0 mg/kg/injection, schedule: Q01DX001 (ip), vehicle: other) was 155 % of control. The T/C (endpoint: mean survival time, dose: 40.0 mg/kg/injection, schedule: Q01DX001 (ip), vehicle: other) was 193 % of control, the T/C (endpoint: mean survival time, dose: 50.0 mg/kg/injection, schedule: Q01DX001 (ip), vehicle: other) was 224 % of control and the T/C (endpoint: mean survival time, dose: 60.0 mg/kg/injection, schedule: Q01DX001 (ip), vehicle: other) was 202 % of control. The T/C (endpoint: mean survival time, dose: 80.0 mg/kg/injection, schedule: Q01DX001 (ip), vehicle: other) was 293 % of control and 329 % of control, the T/C (endpoint: mean survival time, dose: 110.0 mg/kg/injection, schedule: Q01DX001 (ip), vehicle: other) was 294 % of control and the T/C (endpoint: mean survival time, dose: 120.0 mg/kg/injection, schedule: Q01DX001 (ip), vehicle: other) was 319 % of control and 334 % of control. The T/C (endpoint: mean survival time, dose: 180.0 mg/kg/injection, schedule: Q01DX001 (ip), vehicle: other) was 277 % of control, the T/C (endpoint: mean survival time, dose: 187.0 mg/kg/injection, schedule: Q01DX001 (ip), vehicle: other) was 170 % of control and the T/C (endpoint: mean survival time, dose: 240.0 mg/kg/injection, schedule: Q01DX001 (ip), vehicle: other) was 262 % of control.

In the case of `CCOC(=O)c1ccc(NC(=O)N(CCCl)N=O)cc1`, the T/C (endpoint: mean survival time, dose: 4.0 mg/kg/injection, schedule: Q01DX001 (ip), vehicle: carboxymethylcellulose (CMC)) is reported as 108 % of control, the T/C (endpoint: mean survival time, dose: 6.0 mg/kg/injection, schedule: Q01DX001 (ip), vehicle: carboxymethylcellulose (CMC)) is reported as 107 % of control and the T/C (endpoint: mean survival time, dose: 9.0 mg/kg/injection, schedule: Q01DX001 (ip), vehicle: carboxymethylcellulose (CMC)) is reported as 108 % of control. The T/C (endpoint: mean survival time, dose: 13.5 mg/kg/injection, schedule: Q01DX001 (ip), vehicle: carboxymethylcellulose (CMC)) was 113 % of control.

In the case of `CCC(=O)NC1=C(N2CC2)C(=O)C(NC(=O)CC)=C(N2CC2)C1=O`, the T/C (endpoint: mean survival time, dose: 0.5 mg/kg/injection, schedule: Q01DX009 (ip), vehicle: saline) is reported as 105 % of control and the T/C (endpoint: mean survival time, dose: 2.0 mg/kg/injection, schedule: Q01DX009 (ip), vehicle: saline) is reported as 117 % of control.

For `CCNC1=C(N2CC2)C(=O)C(NCC)=C(N2CC2)C1=O`, the T/C (endpoint: mean survival time, dose: 0.37 mg/kg/injection, schedule: Q01DX009 (ip), vehicle: saline) was 101 % of control and 100 % of control, the T/C (endpoint: mean survival time, dose: 0.75 mg/kg/injection, schedule: Q01DX009 (ip), vehicle: saline) was 104 % of control and 117 % of control and the T/C (endpoint: mean survival time, dose: 1.5 mg/kg/injection, schedule: Q01DX009 (ip), vehicle: saline) was 124 % of control.

For `CCN(CC)CCNc1ccc(CO)c2sc3ccccc3c(=O)c12`, the T/C (endpoint: mean survival time, dose: 1.0 mg/kg/injection, schedule: Q01DX005 (ip), vehicle: saline) was 97 % of control, the T/C (endpoint: mean survival time, dose: 2.0 mg/kg/injection, schedule: Q01DX005 (ip), vehicle: saline) was 96 % of control and the T/C (endpoint: mean survival time, dose: 4.0 mg/kg/injection, schedule: Q01DX005 (ip), vehicle: saline) was 100 % of control. The T/C (endpoint: mean survival time, dose: 8.0 mg/kg/injection, schedule: Q01DX005 (ip), vehicle: saline) was 98 % of control, the T/C (endpoint: mean survival time, dose: 16.0 mg/kg/injection, schedule: Q01DX005 (ip), vehicle: saline) was 100 % of control and the T/C (endpoint: mean survival time, dose: 32.0 mg/kg/injection, schedule: Q01DX005 (ip), vehicle: saline) was 107 % of control. The T/C (endpoint: mean survival time, dose: 64.0 mg/kg/injection, schedule: Q01DX005 (ip), vehicle: saline) was 123 % of control.

In the case of `O=NN(CCCl)C(=O)Nc1ccc(Oc2ccc(NC(=O)N(CCCl)N=O)cc2)cc1`, the T/C (endpoint: mean survival time, dose: 440.0 mg/kg/injection, schedule: Q01DX001 (ip), vehicle: carboxymethylcellulose (CMC)) is reported as 116 % of control, the T/C (endpoint: mean survival time, dose: 670.0 mg/kg/injection, schedule: Q01DX001 (ip), vehicle: carboxymethylcellulose (CMC)) is reported as 119 % of control and the T/C (endpoint: mean survival time, dose: 1500.0 mg/kg/injection, schedule: Q01DX001 (ip), vehicle: carboxymethylcellulose (CMC)) is reported as 122 % of control.

In the case of `O=NN(CCCl)C(=O)Nc1ccc(C(F)(F)F)cc1`, the T/C (endpoint: mean survival time, dose: 37.0 mg/kg/injection, schedule: Q01DX001 (ip), vehicle: carboxymethylcellulose (CMC)) is reported as 110 % of control, the T/C (endpoint: mean survival time, dose: 50.0 mg/kg/injection, schedule: Q01DX001 (ip), vehicle: carboxymethylcellulose (CMC)) is reported as 110 % of control and the T/C (endpoint: mean survival time, dose: 75.0 mg/kg/injection, schedule: Q01DX001 (ip), vehicle: carboxymethylcellulose (CMC)) is reported as 118 % of control. For the same compound, the T/C (endpoint: mean survival time, dose: 112.0 mg/kg/injection, schedule: Q01DX001 (ip), vehicle: carboxymethylcellulose (CMC)) was 92 % of control.

In the case of `Nc1n[nH]c(N)n1`, the T/C (endpoint: mean survival time, dose: 100.0 mg/kg/injection, schedule: Q03HX024 (ip), vehicle: saline) is reported as 104 % of control and 97 % of control and 100 % of control, the T/C (endpoint: mean survival time, dose: 150.0 mg/kg/injection, schedule: Q03HX024 (ip), vehicle: saline) is reported as 102 % of control and 104 % of control and 99 % of control and the T/C (endpoint: mean survival time, dose: 225.0 mg/kg/injection, schedule: Q01DX Z (ip), vehicle: saline) is reported as 104 % of control. For the same compound, the T/C (endpoint: mean survival time, dose: 225.0 mg/kg/injection, schedule: Q03HX024 (ip), vehicle: saline) was 102 % of control and 108 % of control and 110 % of control, the T/C (endpoint: mean survival time, dose: 335.0 mg/kg/injection, schedule: Q03HX024 (ip), vehicle: saline) was 109 % of control and 119 % of control and 121 % of control and the T/C (endpoint: mean survival time, dose: 375.0 mg/kg/injection, schedule: Q01DX Z (ip), vehicle: saline) was 108 % of control. For the same compound, the T/C (endpoint: mean survival time, dose: 500.0 mg/kg/injection, schedule: Q03HX024 (ip), vehicle: saline) was 109 % of control and 122 % of control and the T/C (endpoint: mean survival time, dose: 750.0 mg/kg/injection, schedule: Q01DX Z (ip), vehicle: saline) was 98 % of control.

With `C[C@]12C=CC(=O)C=C1CC[C@@H]1[C@@H]2C(=O)C[C@@]2(C)[C@H]1CC[C@]2(O)C(=O)CO` the T/C (endpoint: mean survival time, dose: 100.0 mg/kg/injection, schedule: Q01DX Z (sc), vehicle: steriod suspending solution) was 97 % of control, the T/C (endpoint: mean survival time, dose: 120.0 mg/kg/injection, schedule: Q01DX001 (sc), vehicle: steriod suspending solution) was 102 % of control and the T/C (endpoint: mean survival time, dose: 180.0 mg/kg/injection, schedule: Q01DX001 (sc), vehicle: steriod suspending solution) was 103 % of control. For the same compound, the T/C (endpoint: mean survival time, dose: 200.0 mg/kg/injection, schedule: Q01DX Z (sc), vehicle: steriod suspending solution) was 109 % of control, the T/C (endpoint: mean survival time, dose: 240.0 mg/kg/injection, schedule: Q01DX001 (sc), vehicle: steriod suspending solution) was 103 % of control and the T/C (endpoint: mean survival time, dose: 250.0 mg/kg/injection, schedule: Q01DX Z (sc), vehicle: steriod suspending solution) was 112 % of control. The T/C (endpoint: mean survival time, dose: 375.0 mg/kg/injection, schedule: Q01DX Z (sc), vehicle: steriod suspending solution) was 102 % of control, the T/C (endpoint: mean survival time, dose: 500.0 mg/kg/injection, schedule: Q01DX Z (sc), vehicle: steriod suspending solution) was 97 % of control and the T/C (endpoint: mean survival time, dose: 750.0 mg/kg/injection, schedule: Q01DX Z (sc), vehicle: steriod suspending solution) was 112 % of control.

In the case of `c1nc(SSc2ncnc3nc[nH]c23)c2[nH]cnc2n1`, the T/C (endpoint: mean survival time, dose: 75.0 mg/kg/injection, schedule: Q04DX003 (ip), vehicle: Klucel (hydroxypropylcellulose) (HPC)) is reported as 108 % of control.

For `COCCOCCN1CCN(CCCN2c3ccccc3Sc3ccc(C(F)(F)F)cc32)CC1`, the T/C (endpoint: mean survival time, dose: 25.0 mg/kg/injection, schedule: Q04DX003 (ip), vehicle: saline) was 100 % of control, the T/C (endpoint: mean survival time, dose: 35.0 mg/kg/injection, schedule: Q04DX003 (ip), vehicle: saline) was 108 % of control and the T/C (endpoint: mean survival time, dose: 50.0 mg/kg/injection, schedule: Q04DX003 (ip), vehicle: saline) was 93 % of control.

For `N=c1nc2n(cc1F)[C@@H]1O[C@H](CO)[C@@H](O)[C@@H]1O2`, the T/C (endpoint: median survival time, dose: 100.0 mg/kg/injection, schedule: Q01DX009 (ip), vehicle: saline) was 186 % of control, the T/C (endpoint: median survival time, dose: 200.0 mg/kg/injection, schedule: Q01DX009 (ip), vehicle: saline) was 204 % of control and the T/C (endpoint: median survival time, dose: 400.0 mg/kg/injection, schedule: Q01DX009 (ip), vehicle: saline) was 344 % of control.

With `COc1cccc(NC(=O)N(CCCl)N=O)c1` the T/C (endpoint: mean survival time, dose: 18.0 mg/kg/injection, schedule: Q01DX001 (ip), vehicle: carboxymethylcellulose (CMC)) was 115 % of control, the T/C (endpoint: mean survival time, dose: 27.0 mg/kg/injection, schedule: Q01DX001 (ip), vehicle: carboxymethylcellulose (CMC)) was 115 % of control and the T/C (endpoint: mean survival time, dose: 40.0 mg/kg/injection, schedule: Q01DX001 (ip), vehicle: carboxymethylcellulose (CMC)) was 121 % of control. For the same compound, the T/C (endpoint: mean survival time, dose: 60.0 mg/kg/injection, schedule: Q01DX001 (ip), vehicle: carboxymethylcellulose (CMC)) was 97 % of control.

`COc1ccc2c(Nc3ccc(NS(C)(=O)=O)cc3)c3ccccc3nc2c1` was tested, and the T/C (endpoint: mean survival time, dose: 6.25 mg/kg/injection, schedule: Q01DX009 (ip), vehicle: saline) was 106 % of control, the T/C (endpoint: mean survival time, dose: 6.25 mg/kg/injection, schedule: Q01DX009 (sc), vehicle: saline) was 104 % of control and the T/C (endpoint: mean survival time, dose: 12.5 mg/kg/injection, schedule: Q01DX009 (ip), vehicle: saline) was 102 % of control. For the same compound, the T/C (endpoint: mean survival time, dose: 12.5 mg/kg/injection, schedule: Q01DX009 (sc), vehicle: saline) was 100 % of control, the T/C (endpoint: mean survival time, dose: 25.0 mg/kg/injection, schedule: Q01DX009 (sc), vehicle: saline) was 106 % of control and the T/C (endpoint: mean survival time, dose: 50.0 mg/kg/injection, schedule: Q01DX009 (sc), vehicle: saline) was 88 % of control.

`CC1CCCC(NC(=O)N(CCCl)N=O)C1` (stereo not given) was tested, and the T/C (endpoint: mean survival time, dose: 27.0 mg/kg/injection, schedule: Q01DX001 (ip), vehicle: other) was 174 % of control, the T/C (endpoint: mean survival time, dose: 42.0 mg/kg/injection, schedule: Q01DX001 (ip), vehicle: other) was 150 % of control and 251 % of control and the T/C (endpoint: mean survival time, dose: 62.0 mg/kg/injection, schedule: Q01DX001 (ip), vehicle: other) was 256 % of control and 273 % of control. The T/C (endpoint: mean survival time, dose: 71.0 mg/kg/injection, schedule: Q01DX001 (ip), vehicle: other) was 261 % of control, the T/C (endpoint: mean survival time, dose: 93.0 mg/kg/injection, schedule: Q01DX001 (ip), vehicle: other) was 205 % of control and 223 % of control and the T/C (endpoint: mean survival time, dose: 286.0 mg/kg/injection, schedule: Q01DX001 (ip), vehicle: other) was 92 % of control.
